Experimental data taken from US20150297639A1, “TREATING CANCER” (Rhode Island Hospital, A Lifespan-Partner, priority 2012, published 2015).

Tests used:
DU145 cells = assay: PARP cleavage Western blot, DU145 cells treated with CPT; format: cell-based, human; conditions: 100 nM CPT 24 hours, vs untreated control cells
Experimental: FIGS. 1A-D are a series of photomicrographs and bar graphs showing ECV-mediated reversal of apoptosis resistance and sensitivity. A, B. ECVs were isolated from DU145 S and DU145 R prostate cells. The ECVs were resuspended in PBS. DU145 S cells were co-cultured with DU145 R ECVs and DU145 R cells were co-cultured with DU145 S ECVs. Non-ECV and ECV co-cultured cells were treated with 100 nM of the anticancer agent camptothecin (CPT) for 24 hours and examined for PARP cleavage and actin via Western blot analysis to measure apoptosis. C, D. The same experiment from A and B was repeated and the samples were examined for apoptosis via propidium iodide staining using a flow cytometer. […]
Total cell extracts were prepared as previously described, and protein concentrations of lysates were determined using a Bradford assay kit (BioRad). […] Proteins recognized by antibodies were detected by enhanced chemilluminescence reagents (GE Healthcare).
To investigate the effects of ECV-mediated transfer of chemoresistance in prostate cancer, the mechanism of resistance to camptothecin (CPT) was studied in human prostate cancer cell lines. […] After six days, both groups were treated with CPT, cells were harvested and analyzed for apoptosis via Poly ADP Ribose Polymerase (PARP) cleavage. […] The same experiment was repeated, and the cells were analyzed for apoptosis via flow cytometry.

DU145 cell line = DU145 cell line treated with 9NC; cited from earlier work
MCF7 breast cancer cells = assay: PARP cleavage Western blot, MCF7 cells treated with Dox; format: cell-based, human; conditions: Dox 24 hours
Experimental: (§1) FIG. 8 is a photomicrograph showing MCF7 and MDR breast cancer cells treated with the indicated doses of doxorubicin (Dox) for 24 hours. Western blot analysis was performed to measure the cleavage of PARP (an indicator of apoptosis induction).
(§2) The transfer of chemosensitivity of MCF7 (sensitive) and MCF/MDR (resistant) (MDR) breast cancer cells that are sensitive or resistant, respectively to doxorubicin (Dox) was explored. These cells, similar to the prostate cancer cells, were grown in medium with serum that was depleted of ECVs.

MDR breast cancer cells = assay: PARP cleavage Western blot, MDR cells treated with Dox; format: cell-based, human; conditions: Dox 24 hours
Experimental: as §1
FIG. 9 is a photomicrograph of a Western blot analysis for PARP cleavage and actin in protein lysates isolated from MDR (resistant) cells that were co-cultured with MCF7 (sensitive) ECVs for three days then treated with the indicated concentrations of Dox.
as §2
A reciprocal experiment was performed and ECVs from MCF-7 (sensitive) cells were isolated and co-cultured with MDR (resistant) cells for three days. The MDR (resistant) cells were treated with two doses of Dox.

MCF-7 cells = assay: Apoptosis by flow cytometry, MCF-7 cells treated with Dox; format: cell-based, human; conditions: 10 nM Dox 24 hours
Experimental: FIG. 10 is a bar graph showing the amount of apoptosis in MCF-7 cells that were treated with 10 nM Dox for 24 hours in the presence or absence of MDR ECVs. Cells were harvested and apoptosis measured by flow cytometry. A paired t-test was performed * comparing Dox-treated MCF7 cells and MCF7 cells co-cultured with MDR ECVs. * A paired t-test (p<0.0005) was performed comparing the reduction in soft agar colony formation between Dox treated and MCF7+MDR ECVs+Dox.
The reciprocal experiment from FIG. 9 was performed, and ECVs were isolated from MDR (resistant) cells and co-cultured with MCF7 (sensitive) cells for three days and treated with 10 nM Dox. The cells were analyzed for apoptosis induction by flow cytometry.

Q: Which PARP cleavage (DU145 cells) does the source give for `CC[C@@]1(O)C(=O)OCc2c1cc1n(c2=O)Cc2cc3ccccc3nc2-1` [CPT, camptothecin] here?
A: Its PARP cleavage is “increase in PARP cleavage”.

Q: Which apoptosis (DU145 cell line) does the source give for `CC[C@@]1(O)C(=O)OCc2c1cc1n(c2=O)Cc2cc3c([N+](=O)[O-])cccc3nc2-1` [9NC, 9-nitrocamptothecin] here?
A: Its apoptosis is “extensive apoptosis”.

Q: With `COc1cccc2c1C(=O)c1c(O)c3c(c(O)c1C2=O)C[C@@](O)(C(=O)CO)C[C@@H]3O[C@H]1C[C@H](N)[C@H](O)[C@H](C)O1` [Dox, doxorubicin] as the molecule, how does the “apoptosis measured by cleavage of PARP” value (MCF7 breast cancer cells) read?
A: The value was “sensitive to dose-dependent induction of apoptosis”.

Q: And the “apoptosis measured by cleavage of PARP” value (MDR breast cancer cells)?
A: Its value is “remained resistant”.

Q: What about the apoptosis (MCF-7 cells) of the same molecule?
A: Its apoptosis is “underwent significant apoptosis”.
